PubChem BioAssay (NCI)
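Tested at 5 concentrations; 48 h exposure; 96-well plates; endpoints linearly interpolated, else capped at highest concentration. At the GI50, growth is halved. TGI: total growth inhibition.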

Columns and labels:
Experiment in all cases: inhibition of tumour cell growth, NCI panel, 48 h
SNB-75 CNS = test system: SNB-75 CNS
HCC-2998 colon = test system: HCC-2998 colon
M14 melanoma = test system: M14 melanoma
HCT-116 colon = test system: HCT-116 colon
SW-620 colon = test system: SW-620 colon
HOP-92 NSCLC = test system: HOP-92 NSCLC
HOP-62 NSCLC = test system: HOP-62 NSCLC
KM12 colon = test system: KM12 colon
CCRF-CEM leukemia = test system: CCRF-CEM leukemia
MCF7 breast = test system: MCF7 breast

SMILES	GI50 (SNB-75 CNS) [µM]	TGI (SNB-75 CNS) [µM]	GI50 (HCC-2998 colon) [µM]	TGI (HCC-2998 colon) [µM]	GI50 (M14 melanoma) [µM]	TGI (M14 melanoma) [µM]	GI50 (HCT-116 colon) [µM]	TGI (HCT-116 colon) [µM]	GI50 (SW-620 colon) [µM]	TGI (SW-620 colon) [µM]	GI50 (HOP-92 NSCLC) [µM]	TGI (HOP-92 NSCLC) [µM]	GI50 (HOP-62 NSCLC) [µM]	TGI (HOP-62 NSCLC) [µM]	GI50 (KM12 colon) [µM]	TGI (KM12 colon) [µM]	GI50 (CCRF-CEM leukemia) [µM]	TGI (CCRF-CEM leukemia) [µM]	GI50 (MCF7 breast) [µM]	TGI (MCF7 breast) [µM]
CC(=O)[CH-]C(C)=O.CC(=O)[CH-]C(C)=O.[Cl-].[O]=[V]	8.51	25.2	37.1	> 100	11.4	31	19.1	48.3	38.9	> 100										
CCC[CH2][Sn]1([CH2]CCC)[O]CC[S]1	0.61	1.92	1.05	2.26	0.872	2.68	1.16	2.9	0.268	1.11	0.656	2.19	2.09	3.59	1.19	3.02	0.177	0.814		
C[N+](C)(C)C1CC([N+](C)(C)C)C2c3ccccc3C21 (stereo not given)		> 100		> 100		> 100		> 100		> 100		> 100		> 100		> 100		> 100		
CCn1c(SCC(=O)Nc2cc(C(F)(F)F)ccc2Cl)nc2ccccc2c1=O	17.1	53.8	> 100	> 100	90.7	> 100	17.4	> 100	53.4	> 100	12.1	41.4	14.6	33.5	> 100	> 100			94.4	> 100
C1C[OH+]CCNCC[OH+]CC[OH+]CCN1.N.[Cl-].[Pt+4]	24.2	> 100	54.1	> 100	54.2	> 100	32.9	> 100	67.7	> 100	35.8	> 100	> 100	> 100	29.5	> 100	53.6	> 100		
O=C1c2cc3c(cc2-c2c1c1ccc(F)cc1c(=O)n2C[C@H](O)[C@H](O)[C@H](O)CO)OCO3					0.18	4			0.0967	> 100	0.243	0.896	0.112	0.52			0.0479	31.3	0.0259	0.215
O=C(O)CN1C(=O)CN=C(c2ccccn2)c2cc(Cl)ccc21		> 100				> 100		> 100		> 100		> 100		> 100		> 100				> 100
O=[N+]([O-])c1cc(I)cc(/C=N/NS(=O)(=O)c2ccc(Cl)cc2)c1O		61.2		46.3		58.3		41.3		82.4		37.6		53.6		34.6		58.5		
COc1c(C)c(OC)c(C(=O)CC(C)C)c(OC)c1C				> 100		> 100		> 100		> 100		> 100		> 100		> 100		> 100		> 100
FC(F)(F)c1nc(SCc2ccc(Cl)cc2)n[nH]1		> 100		> 100		> 100		> 100		> 100		> 100		> 100		> 100				> 100
NNc1nc2ccccc2o1		> 100		> 100		> 100		> 100		> 100		> 100				> 100		> 100		> 100
O=C(c1ccccc1)C1OC1C(=O)c1ccccc1 (stereo not given)			2.94	10.3	2.78	11.9	2.09	11.4	3.11	16.1	1.96	6.09			3.51	11.9			2.34	14.7
O=C(O)CCSC(=O)Nc1cccc2ccccc12		> 100		> 100		> 100		> 100		> 100		> 100		> 100		> 100		> 100		
Brc1ccc(C=NC23CC4CC(CC(C4)C2)C3)cc1		> 100		> 100		> 100		> 100		> 100		> 100		> 100		> 100		> 100		
CC[O-].CC[O-].O=C([CH-]C(=O)c1ccccc1)CCCCCCC(=O)[CH-]C(=O)c1ccccc1.[Ti+4]	> 100	> 100	> 100	> 100	> 100	> 100			> 100	> 100	> 100	> 100	> 100	> 100	> 100	> 100	> 100	> 100		
CCCCC(OC(=O)c1ccc(N)cc1)C(=O)Nc1nc(CC(=O)OCC)cs1 (stereo not given)	35.2	> 100	67.5	> 100	32.8	> 100	37.3	> 100	48	> 100	37.5	> 100	56.5	> 100	41.4	> 100			34.8	> 100
O=C(CCCC(=O)N/N=C/c1cc(Cl)ccc1O)N/N=C\c1cc(Cl)ccc1O	8.16	> 100			3.21	> 100	3.75	> 100	3.69	> 100			5.05	> 100	3.98	> 100	1.25	34.3	2.54	> 100
C=CCOc1ccc(N)c([N+](=O)[O-])c1		> 100		> 100		> 100		> 100		> 100				> 100		> 100		> 100		> 100
